Assay results from paper PMC7127696 (Bioorganic & Medicinal Chemistry, 2015).
Like-named read-outs stand apart in the source and are kept apart here.

Key:
Para-influenza-3 virus = assay: CPE reduction assay, para-influenza-3 virus in Vero cells; format: cell-based; details: for EC50: Vero, read-out: Antiviral EC50 value, Para-influenza-3 virus
Reovirus-1 = assay: CPE reduction assay, reovirus-1 in Vero cells; format: cell-based; details: for EC50: Vero, read-out: Antiviral EC50 value, Reovirus-1
[1] = tested on: HEL: human embryonic lung fibroblast cells; details: microscopy
[2] = tested on: MDCK: Madin-Darby canine kidney cells; details: microscopy
[3] = tested on: Respiratory syncytial virus; assay: CPE reduction assay, respiratory syncytial virus in HeLa cells; format: cell-based; details: for Selectivity index (ratio of MCC to antiviral EC50), Respiratory syncytial virus: value in square brackets
Sindbis virus = assay: CPE reduction assay, Sindbis virus in Vero cells; format: cell-based; details: for EC50: Sindbis virus, Vero, read-out: Antiviral EC50 value, Sindbis virus
HeLa cells = details: microscopy
Vero cells = details: microscopy
[4] = tested on: Vesicular stomatitis virus; format: cell-based
Coxsackie B4 virus [5] = assay: CPE reduction assay, Coxsackie B4 virus in HeLa cells; format: cell-based
Coxsackie B4 virus [6] = assay: CPE reduction assay, Coxsackie B4 virus in Vero cells; format: cell-based
Punta Toro virus = assay: CPE reduction assay, Punta Toro virus in Vero cells; format: cell-based
[7] = CPE inhibition, microscopy, mean ± SEM of three tests
[8] = Vero cells, CPE inhibition, microscopy
[9] = Vero cells, CPE inhibition, microscopy, mean ± SEM of three tests
[10] = Vero cells, value in square brackets

Compound | EC50 (Para-influenza-3 virus) | EC50 (Reovirus-1) | MCC (compound concentration causing minimal changes in cell morphology) [1] [μg/mL] | MCC (compound concentration causing minimal changes in cell morphology) [2] [μg/mL] | MCC (compound concentration causing minimal changes in cell morphology) (HeLa cells) [μg/mL] | MCC (compound concentration causing minimal changes in cell morphology) (Vero cells) | other results
O=C(NNC(=S)NCc1ccccc1)c1[nH]c2ccc(F)cc2c1-c1ccccc1 [Compound 6f, 4-Benzyl-1-((5-fluoro-3-phenyl-1H-indol-2-yl)carbonyl)-3-thiosemicarbazide] | > 100 µg/mL | > 100 µg/mL | >10 | >10 | – | – | –
CCNC(=S)NNC(=O)c1[nH]c2ccc(F)cc2c1-c1ccccc1 [Compound 6b, 4-Ethyl-1-((5-fluoro-3-phenyl-1H-indol-2-yl)carbonyl)-3-thiosemicarbazide] | > 100 µg/mL | > 100 µg/mL | – | – | – | – | Selectivity index (ratio of MCC to antiviral EC50), Respiratory syncytial virus [3]: ≥ 5; EC50 (Sindbis virus): 3.2 ± 0.8 µg/mL
CCCN1C(=O)CS/C1=N\NC(=O)c1[nH]c2ccc(F)cc2c1-c1ccccc1 [Compound 7c, 5-Fluoro-N′-(4-oxo-3-propyl-1,3-thiazolidinon-2-ylidene)-3-phenyl-1H-indol-2-carbohydrazide] | > 100 µg/mL | > 100 µg/mL | >100 | >100 | >100 | >100 μg/mL | –
C=CCN1C(=O)CS/C1=N\NC(=O)c1[nH]c2ccc(F)cc2c1-c1ccccc1 [Compound 7d, N′-[(2Z)-3-Allyl-4-oxo-1,3-thiazolidinon-2-ylidene]-5-fluoro-3-phenyl-1H-indol-2-carbohydrazide] | > 100 µg/mL | > 100 µg/mL | >100 | 100 | >100 | >100 μg/mL | –
O=C(NNC(=S)NCCc1ccccc1)c1[nH]c2ccc(F)cc2c1-c1ccccc1 [Compound 6g, 1-((5-Fluoro-3-phenyl-1H-indol-2-yl)carbonyl)-4-phenethyl-3-thiosemicarbazide] | > 100 µg/mL | > 100 µg/mL | – | – | – | – | –
C=CCNC(=S)NNC(=O)c1[nH]c2ccc(F)cc2c1-c1ccccc1 [Compound 6d, 4-Allyl-1-((5-fluoro-3-phenyl-1H-indol-2-yl)carbonyl)-3-thiosemicarbazide] | > 100 µg/mL | > 100 µg/mL | – | – | – | – | Selectivity index (ratio of MCC to antiviral EC50), Respiratory syncytial virus [3]: ≥ 5
O=C(N/N=C1\SCC(=O)N1CCc1ccccc1)c1[nH]c2ccc(F)cc2c1-c1ccccc1 [Compound 7g, 5-Fluoro-N′-(4-oxo-3-phenethyl-1,3-thiazolidinon-2-ylidene)-3-phenyl-1H-indol-2-carbohydrazide] | > 100 µg/mL | > 100 µg/mL | >10 | >10 | 100 | – | –
O=C(N/N=C1\SCC(=O)N1Cc1ccccc1)c1[nH]c2ccc(F)cc2c1-c1ccccc1 [Compound 7f, N′-(3-Benzyl-4-oxo-1,3-thiazolidinon-2-ylidene)-5-fluoro-3-phenyl-1H-indol-2-carbohydrazide] | > 100 µg/mL | > 100 µg/mL | >10 | >10 | >100 | ⩾10 μg/mL | –
dextran sulfate [DS-5000] | – | – | – | – | >100 | >100 μg/mL | Antiviral EC50 value, Vesicular stomatitis virus [4]: 8.0 ± 3.1 [>12] μg/mL; Selectivity index (ratio of MCC to antiviral EC50), Vesicular stomatitis virus [4]: 8.0 ± 3.1 [>12]; Antiviral EC50 value, Coxsackie B4 virus (Coxsackie B4 virus [5]; [7]): ≥ 4 µg/mL; Selectivity index (ratio of MCC to antiviral EC50), Coxsackie B4 virus (Coxsackie B4 virus [5]; value in square brackets): ≥ 25; Antiviral EC50 value, Respiratory syncytial virus [3, 7]: 5.3 ± 3.3 µg/mL; Selectivity index (ratio of MCC to antiviral EC50), Respiratory syncytial virus [3]: > 19; Antiviral EC50 value, Para-influenza-3 virus (Para-influenza-3 virus; [8]): >100 µg/mL; Antiviral EC50 value, Reovirus-1 (Reovirus-1; [8]): >100 µg/mL; Antiviral EC50 value, Sindbis virus (Sindbis virus; [9]): 68 ± 32 µg/mL; Selectivity index (ratio of MCC to antiviral EC50), Sindbis virus (Sindbis virus; [10]): > 1.5; Antiviral EC50 value, Coxsackie B4 virus (Coxsackie B4 virus [6]; [7]): 40 ± 10 µg/mL; Selectivity index (ratio of MCC to antiviral EC50), Coxsackie B4 virus (Coxsackie B4 virus [6]; value in square brackets): > 2.5; Antiviral EC50 value, Punta Toro virus (Punta Toro virus; [9]): 20 ± 0 µg/mL; Selectivity index (ratio of MCC to antiviral EC50), Punta Toro virus (Punta Toro virus; [10]): > 5
CNC(=S)NNC(=O)c1[nH]c2ccc(F)cc2c1-c1ccccc1 [Compound 6a, 1-((5-Fluoro-3-phenyl-1H-indol-2-yl)carbonyl)-4-methyl-3-thiosemicarbazide] | > 100 µg/mL | > 100 µg/mL | – | – | – | – | –
CCCNC(=S)NNC(=O)c1[nH]c2ccc(F)cc2c1-c1ccccc1 [Compound 6c, 1-((5-Fluoro-3-phenyl-1H-indol-2-yl)carbonyl)-4-propyl-3-thiosemicarbazide] | > 100 µg/mL | > 100 µg/mL | – | – | – | 100 μg/mL | Selectivity index (ratio of MCC to antiviral EC50), Respiratory syncytial virus [3]: ≥ 9
CCCCNC(=S)NNC(=O)c1[nH]c2ccc(F)cc2c1-c1ccccc1 [Compound 6e, 4-Butyl-1-((5-fluoro-3-phenyl-1H-indol-2-yl)carbonyl)-3-thiosemicarbazide] | > 100 µg/mL | > 100 µg/mL | >10 | – | – | – | –
CCN1C(=O)CS/C1=N\NC(=O)c1[nH]c2ccc(F)cc2c1-c1ccccc1 [Compound 7b, N′-(3-Ethyl-4-oxo-1,3-thiazolidinon-2-ylidene)-5-fluoro-3-phenyl-1H-indol-2-carbohydrazide] | > 100 µg/mL | > 100 µg/mL | >100 | 100 | >100 | – | –
CCCCN1C(=O)CS/C1=N\NC(=O)c1[nH]c2ccc(F)cc2c1-c1ccccc1 [Compound 7e, N′-(3-Butyl-4-oxo-1,3-thiazolidinon-2-ylidene)-5-fluoro-3-phenyl-1H-indol-2-carbohydrazide] | > 100 µg/mL | > 100 µg/mL | >10 | >10 | >100 | >10 μg/mL | –
CN1C(=O)CS/C1=N\NC(=O)c1[nH]c2ccc(F)cc2c1-c1ccccc1 [Compound 7a, 5-Fluoro-N′-(3-methyl-4-oxo-1,3-thiazolidinon-2-ylidene)-3-phenyl-1H-indol-2-carbohydrazide] | > 100 µg/mL | > 100 µg/mL | >100 | 100 | 100 | – | –
NC(=O)c1ncn([C@@H]2O[C@H](CO)[C@@H](O)[C@H]2O)n1 [Ribavirin, ribavirin, reference compound] | > 250 µM | > 250 µM | – | – | – | – | EC50 (Sindbis virus): 250 µM; EC50 (Punta Toro virus; Punta Toro virus, Vero, read-out: Antiviral EC50 value, Punta Toro virus): 50 µM; MCC (compound concentration causing minimal changes in cell morphology) (HeLa cells; ribavirin data in μM): >250 μM; MCC (compound concentration causing minimal changes in cell morphology) (Vero cells; ribavirin data in μM): >250 μM
